The record followed here is article PMC12553813, “Converting Escherichia coli isochorismatase YecD into γ-lactamase” (Bioresources and Bioprocessing, 2025).

A word on the Km: it is the concentration of substrate that gives half-maximal velocity.

Common to all, as to type: biochemical
Test [1] concerns the target YecD (Escherichia coli, UniProt P0ADI7, V56A/G134C, form not given). The test is described as follows: hydrolysis kinetics, chiral HPLC. The following applies: standard assay: 50 mM Tris-HCl pH 8.0, 35 °C, racemic γ-lactam.
In test [2] the target is YecD (Escherichia coli, UniProt P0ADI7, G134C, form not given). Put plainly: hydrolysis kinetics, chiral HPLC. The following applies: standard assay: 50 mM Tris-HCl pH 8.0, 35 °C, racemic γ-lactam.
YecD (Escherichia coli, UniProt P0ADI7, G134C, form not given), sequence (P0ADI7 whole entry G134C, form open): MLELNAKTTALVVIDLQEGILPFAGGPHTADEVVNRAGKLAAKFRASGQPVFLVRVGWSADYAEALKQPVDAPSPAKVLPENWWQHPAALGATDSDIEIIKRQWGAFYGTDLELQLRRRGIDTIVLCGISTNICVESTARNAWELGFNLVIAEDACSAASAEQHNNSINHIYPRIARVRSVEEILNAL
For test [3], the target named is YecD (Escherichia coli, UniProt P0ADI7, F23A/G134C, form not given). Put plainly: hydrolysis kinetics, chiral HPLC. The following applies: standard assay: 50 mM Tris-HCl pH 8.0, 35 °C, racemic γ-lactam.
YecD (Escherichia coli, UniProt P0ADI7, F23A/G134C, form not given), sequence (P0ADI7 whole entry F23A/G134C, form open): as the sequence (P0ADI7 whole entry G134C, form open) above, with F23A counted along it
For test [4], the target named is YecD (Escherichia coli, UniProt P0ADI7, W104Y/G134C, form not given). The test is described as follows: hydrolysis kinetics, chiral HPLC. The following applies: standard assay: 50 mM Tris-HCl pH 8.0, 35 °C, racemic γ-lactam.
YecD (Escherichia coli, UniProt P0ADI7, W104Y/G134C, form not given), sequence (P0ADI7 whole entry W104Y/G134C, form open): as the sequence (P0ADI7 whole entry G134C, form open) above, with W104Y counted along it
The target in test [5] is T1, RutB (Escherichia coli, UniProt P75897).
T1 sequence (P75897 1-230): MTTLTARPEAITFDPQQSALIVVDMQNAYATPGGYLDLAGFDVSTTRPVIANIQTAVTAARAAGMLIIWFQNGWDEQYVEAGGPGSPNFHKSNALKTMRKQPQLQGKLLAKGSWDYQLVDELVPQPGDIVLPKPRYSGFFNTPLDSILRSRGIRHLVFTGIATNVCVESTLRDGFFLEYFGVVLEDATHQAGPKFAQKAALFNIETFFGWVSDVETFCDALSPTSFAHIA
The test is described as follows: γ-lactamase activity screen, chiral HPLC. The following applies: 50 mM Tris-HCl pH 8.0, 35 °C, 4.6 mM racemic γ-lactam.

Test [6] has as its target YecD (Escherichia coli, UniProt P0ADI7, W104A/G134C, form not given). The test is described as follows: hydrolysis kinetics, chiral HPLC. To be noted: standard assay: 50 mM Tris-HCl pH 8.0, 35 °C, racemic γ-lactam.
Test [7] deals with YecD (Escherichia coli, UniProt P0ADI7, V56I/W104E/G134C, form not given). The test is described as follows: hydrolysis kinetics, chiral HPLC. The following applies: standard assay: 50 mM Tris-HCl pH 8.0, 35 °C, racemic γ-lactam.
YecD (Escherichia coli, UniProt P0ADI7, V56I/W104E/G134C, form not given), sequence (P0ADI7 whole entry V56I/W104E/G134C, form open): as the sequence (P0ADI7 whole entry G134C, form open) above, with V56I, W104E counted along it
Test [8] deals with YecD (Escherichia coli, UniProt P0ADI7, W104F/G134C, form not given). Put plainly: hydrolysis kinetics, chiral HPLC. The following applies: standard assay: 50 mM Tris-HCl pH 8.0, 35 °C, racemic γ-lactam.
YecD (Escherichia coli, UniProt P0ADI7, W104F/G134C, form not given), sequence (P0ADI7 whole entry W104F/G134C, form open): as the sequence (P0ADI7 whole entry G134C, form open) above, with W104F counted along it

YecD (Escherichia coli, UniProt P0ADI7, W104A/G134C, form not given), sequence (P0ADI7 whole entry W104A/G134C, form open): as the sequence (P0ADI7 whole entry G134C, form open) above, with W104A counted along it
YecD (Escherichia coli, UniProt P0ADI7, V56A/G134C, form not given), sequence (P0ADI7 whole entry V56A/G134C, form open): as the sequence (P0ADI7 whole entry G134C, form open) above, with V56A counted along it

For `O=C1N[C@@H]2C=C[C@H]1C2` (racemic) [( +) γ-lactam, 2-azabicyclo [2.2.1] hept-5-en-3-one], the Km was 70 ± 3 mM in test [1]; 72 ± 4 mM in test [2]; 67 ± 4 mM in test [3]; 36 ± 3 mM in test [4]; 79 ± 3 mM in test [6]; 16 ± 2 mM in test [7]. Further, the Km in test [8] stood at 74 ± 3 mM. Also, the “γ-lactamase activity screen, chiral HPLC” value in test [5] was “Screening for ( +) γ-lactamase activity revealed that only RutB exhibited this catalytic function”.
